In ChEMBL document CHEMBL5608174, “Synthesis and biological evaluation of 4-phenyl-5-quinolinyl substituted isoxazole analogues as potent cytotoxic and tubulin polymerization inhibitors against ESCC” (Eur J Med Chem, 2024):
pIC50: −log10 of the molar value.

What was measured:
MGC-803 = assay: Antiproliferative activity against human MGC-803 cells assessed as inhibition of cell proliferation incubated for 48 hrs by MTT assay; format: functional, cell-based; conditions: MGC-803, 48 h
KYSE-30 = assay: cells; conditions: Homo sapiens, KYSE-30, 48 h
Description: Antiproliferative activity against human KYSE-30 cells assessed as inhibition of cell proliferation incubated for 48 hrs by MTT assay

HCT-116 = assay: cells; conditions: Homo sapiens, HCT-116, 48 h
Description: Antiproliferative activity against human HCT-116 cells assessed as inhibition of cell proliferation incubated for 48 hrs by MTT assay

[1] = Toxicity in female BALB/c-nu nude mouse xenografted with human KYSE-30 cells assessed as effect on body weight at 6 to 12 mg/kg, ip administered for 15 days; format: organism-based; conditions: in vivo, 360 h, dose 6-12 mg/kg, time 15 day
[2] = Cytotoxicity against HUVEC cells assessed as inhibition of cell growth incubated for 48 hrs by MTT assay; format: toxicity, cell-based; conditions: human

| SMILES | pIC50 (MGC-803) | pIC50 (KYSE-30) | pIC50 (HCT-116) | Activity [1] | IC50 at 48 h [2] [nM] |
| --- | --- | --- | --- | --- | --- |
| Cc1cccc(-c2nn[nH]c2-c2ccnc3ccccc23)c1 | < 5.00 | < 5.00 | < 5.00 | – | – |
| c1ccc2c(-c3[nH]nnc3-c3ccc4occc4c3)ccnc2c1 | 5.07 | 5.47 | 5.11 | – | – |
| COc1cccc(-c2cnoc2-c2ccnc3ccccc23)c1 | 5.60 | 5.34 | 5.27 | – | – |
| c1ccc2c(-c3[nH]nnc3-c3ccc4c(c3)CCO4)ccnc2c1 | 5.24 | 5.20 | < 5.00 | – | – |
| c1ccc2c(-c3[nH]nnc3-c3ccc4oc5ccccc5c4c3)ccnc2c1 | < 5.00 | < 5.00 | < 5.00 | – | – |
| COc1cccc(-c2[nH]nnc2-c2ccnc3ccccc23)c1 | < 5.00 | < 5.00 | < 5.00 | – | – |
| c1ccc2c(-c3[nH]nnc3-c3ccc4sc5ccccc5c4c3)ccnc2c1 | < 5.00 | < 5.00 | < 5.00 | – | – |
| CC(C)Oc1ccc(-c2cn[nH]c2-c2ccnc3ccccc23)cc1 | 5.32 | < 5.00 | < 5.00 | – | – |
| Cc1ccccc1-c1nn[nH]c1-c1ccnc2ccccc12 | < 5.00 | < 5.00 | < 5.00 | – | – |
| c1ccc2c(-c3[nH]nnc3-c3ccc4[nH]c5ccccc5c4c3)ccnc2c1 | < 5.00 | < 5.00 | < 5.00 | – | – |
| c1ccc2c(-c3oncc3-c3ccc4c(c3)CCO4)ccnc2c1 | 5.67 | 6.14 | < 5.00 | – | – |
| c1ccc2c(-c3[nH]ncc3-c3ccc4c(c3)CCO4)ccnc2c1 | < 5.00 | 5.00 | < 5.00 | – | – |
| COc1ccccc1-c1cnoc1-c1ccnc2ccccc12 | < 5.00 | < 5.00 | < 5.00 | – | – |
| CC(C)Oc1ccc(-c2nn[nH]c2-c2ccnc3ccccc23)cc1 | 5.47 | 6.61 | 6.15 | – | – |
| c1ccc2c(-c3[nH]nnc3-c3ccc4sccc4c3)ccnc2c1 | < 5.00 | < 5.00 | < 5.00 | – | – |
| COc1ccccc1-c1cn[nH]c1-c1cc(C)nc2ccccc12 | < 6.10 | < 6.10 | < 6.10 | – | – |
| COc1ccccc1-c1[nH]nnc1-c1ccnc2ccccc12 | < 5.00 | < 5.00 | < 5.00 | – | – |
| COc1ccccc1-c1cn[nH]c1-c1ccnc2ccccc12 | < 5.00 | < 5.00 | < 5.00 | – | – |
| c1cc(-c2nn[nH]c2-c2ccnc3ccccc23)c2occc2c1 | < 5.00 | < 5.00 | < 5.00 | – | – |
| Cc1ccc(-c2nn[nH]c2-c2ccnc3ccccc23)cc1 | 5.24 | 5.78 | 5.43 | – | – |
| Cc1cc(-c2[nH]ncc2-c2ccc3c(c2)CCO3)c2ccccc2n1 | 5.49 | 6.31 | 6.13 | – | – |

Further lines, with some results ahead:

| pIC50 (MGC-803) | pIC50 (KYSE-30) | pIC50 (HCT-116) | SMILES | Activity [1] | IC50 at 48 h [2] [nM] |
| --- | --- | --- | --- | --- | --- |
| 7.19 | 6.99 | 7.27 | COc1ccc(-c2cnoc2-c2cc(C)nc3ccccc23)cc1[N+](=O)[O-] | – | – |
| 6.82 | 5.87 | 6.11 | COc1ccc(-c2[nH]nnc2-c2ccnc3ccccc23)cc1 | – | – |
| 6.48 | < 6.10 | < 6.10 | Cc1cc(-c2[nH]ncc2-c2ccc(OC(C)C)cc2)c2ccccc2n1 | – | – |
| 7.49 | 7.68 | 7.62 | COc1ccc(-c2nn[nH]c2-c2ccnc3ccccc23)cc1O | – | – |
| 7.55 | 6.71 | 5.63 | COc1ccc(-c2cnoc2-c2ccnc3ccccc23)cc1[N+](=O)[O-] | – | – |
| 7.74 | 7.85 | < 6.10 | CCOc1ccc(-c2cnoc2-c2cc(C)nc3ccccc23)cc1 | Non-Toxic | > 710 |
| 6.73 | 6.75 | 6.68 | c1ccc2c(-c3[nH]nnc3-c3ccc4[nH]ccc4c3)ccnc2c1 | – | – |
| 7.41 | 7.04 | 7.17 | COc1ccc(-c2cn[nH]c2-c2cc(C)nc3ccccc23)cc1 | – | > 710 |
| 7.85 | 6.91 | 7.41 | CCOc1ccc(-c2cnoc2-c2ccnc3ccccc23)cc1 | – | – |
| 7.62 | 6.45 | 6.01 | COc1ccc(-c2cnoc2-c2ccnc3ccccc23)cc1 | – | – |
| 5.81 | 5.50 | 5.26 | COc1cccc(-c2cn[nH]c2-c2ccnc3ccccc23)c1 | – | – |
| 6.70 | 5.99 | 6.02 | COc1ccc(-c2cn[nH]c2-c2ccnc3ccccc23)cc1 | – | – |
| 6.06 | 5.19 | 5.22 | CCCOc1ccc(-c2cn[nH]c2-c2ccnc3ccccc23)cc1 | – | – |
| 7.24 | < 6.10 | < 6.10 | CCCOc1ccc(-c2cnoc2-c2cc(C)nc3ccccc23)cc1 | – | – |
| 7.31 | 6.65 | 6.88 | Cc1cc(-c2oncc2-c2ccc(OC(C)C)cc2)c2ccccc2n1 | – | – |
| 6.60 | 5.50 | 6.36 | CCOc1ccc(-c2cn[nH]c2-c2ccnc3ccccc23)cc1 | – | – |
| 6.89 | < 6.10 | 7.05 | CCCOc1ccc(-c2cn[nH]c2-c2cc(C)nc3ccccc23)cc1 | – | – |
| 6.31 | 5.82 | 5.35 | CC(C)Oc1ccc(-c2cnoc2-c2ccnc3ccccc23)cc1 | – | – |
| 5.71 | 5.12 | 5.07 | COc1ccccc1-c1cnoc1-c1cc(C)nc2ccccc12 | – | – |
| 7.23 | 6.54 | 6.42 | CCOc1ccc(-c2[nH]nnc2-c2ccnc3ccccc23)cc1 | – | – |
| 6.39 | < 6.10 | < 6.10 | Cc1cc(-c2oncc2-c2ccc3c(c2)CCO3)c2ccccc2n1 | – | – |
| 6.36 | 6.15 | 6.22 | CCCOc1ccc(-c2cnoc2-c2ccnc3ccccc23)cc1 | – | – |
| 5.70 | < 5.60 | < 5.00 | COc1ccc(-c2cn[nH]c2-c2ccnc3ccccc23)cc1[N+](=O)[O-] | – | – |
| 7.51 | 7.19 | 7.36 | CCOc1ccc(-c2cn[nH]c2-c2cc(C)nc3ccccc23)cc1 | – | > 710 |
| 7.00 | 6.46 | 6.54 | COc1cccc(-c2cnoc2-c2cc(C)nc3ccccc23)c1 | – | – |
| 6.53 | 6.39 | 6.61 | COc1cccc(-c2cn[nH]c2-c2cc(C)nc3ccccc23)c1 | – | – |
